Measured values as given in patent US20260365653A1, “IRREVERSIBLE MUTEGFR INHIBITORS” (Bayer Aktiengesellschaft, priority 2022, published 2026).
“And” between values parts separate entries of the source, which are not always exact repeats. Equal entries are not always repeated.

Key:
[1] = target: T1, mutEGFR (D770_N771insSVD) (Homo sapiens, UniProt P00533, DUP768-770); assay: Exon20-Mutant-EGFR (D770_N771insSVD) kinase assay (TR-FRET); format: biochemical
T1 construct: GST-EGFR #3 (SVD between D770 and N771); made in house; host or cells: Sf9 insect cells (baculovirus)

[2] = target: T2, mutEGFR (D770_N771insNPG, T790) (Homo sapiens, UniProt P00533, INS770NPG/T790M); assay: mutEGFR (D770_N771insNPG, T790) kinase assay; format: biochemical
T2 construct: exact insNPG construct not described; in-house EGFR proteins were N-terminal GST fusions from baculovirus/insect cells (borders R669-A1210 given only for WT, insSVD, insASV)
Description: The different EGFR proteins used in the biochemical kinase activity inhibition assays were generated inhouse by expression in insect cells using Baculo Virus system and subsequent purification as described in the following paragraphs.
The cDNAs encoding the various protein sequences from human EGFR human (P00533) were optimized for expression in eukaryotic cells and synthesized by the GeneArt Technology at Life Technologies.

BA/F3 (insSVD) cells = assay: Ba/F3-EGFR-insSVD cell survival assay (Cell Titer-Glo); format: cell-based; settings: Mus musculus, BaF3, 48 h
Method in brief: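 CellTiter-Glo luminescence read after 48 h compound exposure at 37° C. Cells: IL-3-independent Ba/F3 lines transduced with EGFR-insSVD or EGFR-insSVD T790M, maintained on 10 ng/ml EGF and seeded at 4000 per well.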

[3] = mutEGFR (D770_N771insSVD) kinase assay IC50, Table 2a, D770_N771insSVD, 2 mM ATP
[4] = mutEGFR (D770_N771insSVD) kinase assay IC50, Table 2b (from US Priority Patent Application), mutEGFR D770_N771insSVD
[5] = Table 2b (from US Priority Patent Application), mutEGFR D770_N771insNPG
[6] = Table 3a, cell survival, Cell Titer-Glo, with 10 ng/ml EGF, without IL-3

T1 sequence (P00533 with tags, fused parts or gaps DUP768-770): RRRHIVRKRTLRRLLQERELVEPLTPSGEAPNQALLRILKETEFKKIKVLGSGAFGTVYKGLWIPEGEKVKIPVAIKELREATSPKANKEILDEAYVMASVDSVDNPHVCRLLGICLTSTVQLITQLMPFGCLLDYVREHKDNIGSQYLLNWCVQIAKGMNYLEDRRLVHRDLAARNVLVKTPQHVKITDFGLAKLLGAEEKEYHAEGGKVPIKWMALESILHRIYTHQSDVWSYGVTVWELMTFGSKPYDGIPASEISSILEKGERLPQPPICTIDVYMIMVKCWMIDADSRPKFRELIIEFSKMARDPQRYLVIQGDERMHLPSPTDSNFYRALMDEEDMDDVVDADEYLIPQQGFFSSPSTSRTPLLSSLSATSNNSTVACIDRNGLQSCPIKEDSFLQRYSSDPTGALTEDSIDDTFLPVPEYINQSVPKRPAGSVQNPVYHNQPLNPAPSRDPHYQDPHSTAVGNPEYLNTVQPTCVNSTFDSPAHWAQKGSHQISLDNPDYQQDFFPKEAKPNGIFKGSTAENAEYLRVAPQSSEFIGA
T2 sequence (P00533 with tags, fused parts or gaps INS770NPG/T790M limits assumed): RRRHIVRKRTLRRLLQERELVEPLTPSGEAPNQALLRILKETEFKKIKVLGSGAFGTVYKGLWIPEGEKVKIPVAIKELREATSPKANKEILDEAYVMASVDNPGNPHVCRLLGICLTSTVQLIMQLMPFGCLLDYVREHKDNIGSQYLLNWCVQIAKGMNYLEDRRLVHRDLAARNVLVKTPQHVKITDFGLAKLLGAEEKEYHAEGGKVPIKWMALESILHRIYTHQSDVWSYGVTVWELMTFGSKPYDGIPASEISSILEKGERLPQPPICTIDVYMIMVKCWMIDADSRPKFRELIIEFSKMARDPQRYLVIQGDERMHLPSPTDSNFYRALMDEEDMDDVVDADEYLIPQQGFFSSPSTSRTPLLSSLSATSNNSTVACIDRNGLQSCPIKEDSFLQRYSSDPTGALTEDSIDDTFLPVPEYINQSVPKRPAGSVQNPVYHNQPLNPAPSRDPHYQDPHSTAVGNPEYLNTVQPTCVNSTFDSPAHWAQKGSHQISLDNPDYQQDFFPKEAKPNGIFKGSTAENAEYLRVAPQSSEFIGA

Structure (SMILES) | IC50 [1, 3] [nM] | IC50 [1, 4] [nM] | IC50 ([2]; Table 2a, D770_N771insNPG) | IC50 [2, 5] [nM] | IC50 (BA/F3 (insSVD) cells; [6]) [nM] | IC50 (BA/F3 (insSVD) cells; Table 3b, Ba/F3 EGFR-insSVD) [nM]
CN(C)C/C=C/C(=O)N1CCn2nc(-c3ccc(F)cc3)c(-c3ccnc(NC(=O)C4CC4)c3)c2C1 [Example 8, N-(4-{5-[(2E)-4-(dimethylamino)but-2-enoyl]-2-(4-fluorophenyl)-4,5,6,7-tetrahydropyrazolo[1,5-a]pyrazin-3-yl}pyridin-2-yl)cyclopropanecarboxamide] | 0.393 | 0.393 | 0.765 nM | 0.765 | 20.4 | 20.4
O=C(Nc1cc(-c2c(-c3ccc(F)cc3)nn3c2CN(C(=O)C2CO2)CC3)ccn1)C1CC1 (stereo not shown) [Example 9, N-{4-[2-(4-fluorophenyl)-5-(oxirane-2-carbonyl)-4,5,6,7-tetrahydropyrazolo[1,5-a]pyrazin-3-yl]pyridin-2-yl}cyclopropanecarboxamide] | 64.5 | 64.5 | 104 nM | 104 | 2040 | 2040
C#CC(=O)N1CCn2nc(-c3ccc(F)cc3)c(-c3ccncc3)c2C1 [Example 13, 1-[2-(4-fluorophenyl)-3-(pyridin-4-yl)-6,7-dihydropyrazolo[1,5-a]pyrazin-5(4H)-yl]prop-2-yn-1-one] | 0.807 | 0.807 | 1.26 nM | 1.26 | 909 | 909
CN(C)C/C=C/C(=O)N1CCn2nc(-c3ccc(F)cc3)c(-c3ccncc3)c2C1 [Example 15, (2E)-4-(dimethylamino)-1-[2-(4-fluorophenyl)-3-(pyridin-4-yl)-6,7-dihydropyrazolo[1,5-a]pyrazin-5(4H)-yl]but-2-en-1-one] | 0.729 | 0.729 | 1.08 nM | 1.08 | 86.9 | 86.9
C=CC(=O)N1CCn2nc(Nc3ccc(F)cc3)c(-c3ccncc3)c2C1 [Example 19, 1-[2-(4-fluoroanilino)-3-(pyridin-4-yl)-6,7-dihydropyrazolo[1,5-a]pyrazin-5(4H)-yl]prop-2-en-1-one] | 25.9 | 25.9 | 210 nM |  | 823 | 823
CN(C)C/C=C/C(=O)N1CCn2nc(-c3ccc(F)cc3)c(-c3ccnc(Nc4ccccc4)c3)c2C1 [Example 21, (2E)-1-[3-(2-anilinopyridin-4-yl)-2-(4-fluorophenyl)-6,7-dihydropyrazolo[1,5-a]pyrazin-5(4H)-yl]-4-(dimethylamino)but-2-en-1-one] | 1.17 | 1.17 | 4.45 nM |  | 101 | 101
CN(C)C/C=C/C(=O)N1CCn2nc(-c3ccc(Cl)c(F)c3)c(-c3ccncc3)c2C1 [Example 25, (2E)-1-[2-(4-chloro-3-fluorophenyl)-3-(pyridin-4-yl)-6,7-dihydropyrazolo[1,5-a]pyrazin-5(4H)-yl]-4-(dimethylamino)but-2-en-1-one] | 0.6 |  | 2.12 nM |  | 62.3 | 
CN(C)C/C=C/C(=O)N1CCn2nc(-c3ccc(Cl)cc3F)c(-c3ccncc3)c2C1 [Example 26, (2E)-1-[2-(4-chloro-2-fluorophenyl)-3-(pyridin-4-yl)-6,7-dihydropyrazolo[1,5-a]pyrazin-5(4H)-yl]-4-(dimethylamino)but-2-en-1-one] | 1.26 |  | 3.3 nM |  | 70.3 | 
COc1ccc(-c2nn3c(c2-c2ccncc2)CN(C(=O)/C=C/CN(C)C)CC3)cc1Cl [Example 27, (2E)-1-[2-(3-chloro-4-methoxyphenyl)-3-(pyridin-4-yl)-6,7-dihydropyrazolo[1,5-a]pyrazin-5(4H)-yl]-4-(dimethylamino)but-2-en-1-one] | 3.77 |  | 3.02 nM |  | 679 | 

The next lines start with results.

IC50 [1, 3] [nM] | IC50 [1, 4] [nM] | IC50 ([2]; Table 2a, D770_N771insNPG) | IC50 [2, 5] [nM] | Structure (SMILES) | IC50 (BA/F3 (insSVD) cells; [6]) [nM] | IC50 (BA/F3 (insSVD) cells; Table 3b, Ba/F3 EGFR-insSVD) [nM]
1.45 | 1.45 | 1.47 nM | 1.47 | C=CC(=O)N1CCn2nc(-c3cccc(F)c3)c(-c3ccncc3)c2C1 [Example 4, 1-[2-(3-fluorophenyl)-3-(pyridin-4-yl)-6,7-dihydropyrazolo[1,5-a]pyrazin-5(4H)-yl]prop-2-en-1-one] | 50.5 | 50.5
29.6 | 29.6 | 43.8 nM | 43.8 | C=CC(=O)N1CCn2nc(-c3ccc(F)cc3)c(-c3ccnc(OC)c3)c2C1 [Example 11, 1-[2-(4-fluorophenyl)-3-(2-methoxypyridin-4-yl)-6,7-dihydropyrazolo[1,5-a]pyrazin-5(4H)-yl]prop-2-en-1-one] | 1560 | 1560
37.1 | 37.1 | 84.2 nM | 84.2 | C=CC(=O)N1CCn2nc(-c3ccc(F)cc3)c(-c3ccncc3OC)c2C1 [Example 12, 1-[2-(4-fluorophenyl)-3-(3-methoxypyridin-4-yl)-6,7-dihydropyrazolo[1,5-a]pyrazin-5(4H)-yl]prop-2-en-1-one] | 359 | 359
55.2 | 55.2 | 76.6 nM | 76.6 | CC#CC(=O)N1CCn2nc(-c3ccc(F)cc3)c(-c3ccncc3)c2C1 [Example 16, 1-[2-(4-fluorophenyl)-3-(pyridin-4-yl)-6,7-dihydropyrazolo[1,5-a]pyrazin-5(4H)-yl]but-2-yn-1-one] | 774 | 774
55.7 | 55.7 | 85.8 nM | 85.8 | C=C(F)C(=O)N1CCn2nc(-c3ccc(F)cc3)c(-c3ccncc3)c2C1 [Example 17, 2-fluoro-1-[2-(4-fluorophenyl)-3-(pyridin-4-yl)-6,7-dihydropyrazolo[1,5-a]pyrazin-5(4H)-yl]prop-2-en-1-one] | 1150 | 1150
3.54 | 3.54 | 9.13 nM |  | C=CC(=O)N1CCn2nc(-c3ccc(F)cc3)c(-c3ccnc(Nc4ccccc4)c3)c2C1 [Example 20, 1-[3-(2-anilinopyridin-4-yl)-2-(4-fluorophenyl)-6,7-dihydropyrazolo[1,5-a]pyrazin-5(4H)-yl]prop-2-en-1-one] | 617 | 617
5.12 | 5.12 | 3.34 nM |  | C=CC(=O)N1CCn2nc(-c3ccc(F)cc3)c(-c3ccnc4[nH]ccc34)c2C1 [Example 22, 1-[2-(4-fluorophenyl)-3-(1H-pyrrolo[2,3-b]pyridin-4-yl)-6,7-dihydropyrazolo[1,5-a]pyrazin-5(4H)-yl]prop-2-en-1-one] | 62 | 62
208 | 208 | 804 nM |  | C/C=C/C(=O)N1CCn2nc(-c3ccc(F)cc3)c(-c3ccncc3)c2C1 [Example 23, (2E)-1-[2-(4-fluorophenyl)-3-(pyridin-4-yl)-6,7-dihydropyrazolo[1,5-a]pyrazin-5(4H)-yl]but-2-en-1-one] | 3850 | 
1150 | 1150 | 14600 nM and > 20000 nM |  | C=C(C)C(=O)N1CCn2nc(-c3ccc(F)cc3)c(-c3ccncc3)c2C1 [Example 24, 1-[2-(4-fluorophenyl)-3-(pyridin-4-yl)-6,7-dihydropyrazolo[1,5-a]pyrazin-5(4H)-yl]-2-methylprop-2-en-1-one] | 9980 | 
